This assay concerns normal rats. Description: Water maze test (acquisition latency). The conditions noted are these: oral, every day from 7 days before and during the test, male Wister rats. It counts as in vivo, rat. The procedure:
Male Wister rats (7-weeks-old) were used for a water maze test. A circular plastic water tank (diameter 180 cm, depth 45 cm) was used. The inside of the water tank was completely painted in black, and dark water with India ink was filled up to 25 cm from the bottom (22° C.). A platform (diameter 11 cm) painted in black was placed in water such that it was 1 cm below the water surface. The water tank was placed in a test room, and several marks seen by the rat from the water tank were put thereon. During the test, the position of the marks was not changed. A platform was placed a predetermined position from the equal distance from the center and the end of the water tank, namely, center of one quadrant. At one of the randomly selected 5 points, the rat was released facing the wall of the water tank, and the time necessary for evacuating on the platform (acquisition latency) was measured. When smoothly evacuated, the rat was left on the platform for 10 seconds. From 7 days before the water maze test and during the test, DLPC (5 mg/kg) alone, DLPC (10 mg/kg) alone, POPC (5 mg/kg) alone, POPC (10 mg/kg) alone, DLPC (5 mg/kg) and POPC (5 mg/kg), or PEG alone, each dissolved in polyethylene glycol (PEG), was orally administered every day. The water maze test m was performed twice a day, and the second test was started at 2 min after the first test. The test was continuously performed for 8 days, and the mean (±SEM) of acquisition latency of continuous 2 days until the rat reached the platform was calculated.
PEG, DLPC (5 mg/kg), DLPC (10 mg/kg), POPC (5 mg/kg), POPC (10 mg/kg) or DLPC (5 mg/kg) and POPC (5 mg/kg) was orally administered to rats every day during the water maze test from 7 days before the test.

With `CCCCC/C=C\C/C=C\CCCCCCCC(=O)OC[C@H](COP(=O)([O-])OCC[N+](C)(C)C)OC(=O)CCCCCCC/C=C\C/C=C\CCCCC` [DLPC, 1,2-dilinoleoyl-sn-glycero-3-phosphocholine], the “acquisition latency of the rat” value runs as follows: (single administration 5 mg/kg) “did not show a remarkable effect”; (single administration 10 mg/kg) “did not show a remarkable effect”.

`CCCCCCCC/C=C\CCCCCCCC(=O)O[C@H](COC(=O)CCCCCCCCCCCCCCC)COP(=O)([O-])OCC[N+](C)(C)C` [POPC, 1-palmitoyl-2-oleoyl-sn-glycero-3-phosphocholine]: the “acquisition latency of the rat” value (single administration 5 mg/kg) was “did not show a remarkable effect” and the “acquisition latency of the rat” value (single administration 10 mg/kg) is “did not show a remarkable effect”.

Source of the values: patent publication US20130274228A1, “CONCOMITANT DRUG FOR IMPROVING COGNITIVE FUNCTION” (Nishizaki Bioinformation Research Institute, priority 2010, published 2013).
